Columns and labels:
[1] = test system: Jurkat T cells; test: anti-Fas induced apoptosis in ICAM-2 crosslinked Jurkat cells, annexin-V binding assay; type: cell-based, human; details: inhibitor 10 μM 1 hour, anti-Fas 50 ng/ml 8 hours
Procedure: A) ICAM-2, crosslinking induced AKT activity in Jurkat T cells and subsequent phosphorylation of GSK3, FKHR, and AFX as a function of time. Serum starved Jurkat T cells were incubated with either isotype control or anti-human ICAM-2, (10, μg/ml) for the indicated times. AKT kinase activity was determined as described. Immunoblot analysis verified AKT dual phosphorylation, FKHR and GSK3 phosphorylation, and BAD phosphorylation as a function of ICAM-2, crosslinking. B) ICAM-2 crosslinking induces AKT activity in BaF3, pre-B cells. […] ICAM-2, was crosslinked on 106, Jurkat T cells using an ICAM-2, mAb (10, μg/ml) 30, minutes prior to treatment with staurosporine (+) or DMSO vehicle (−). Apoptosis was determined by flow cytometry using annexin-V binding assay. […] Cells were assessed for apoptosis by annexin-V binding assay. […]
Apoptosis was determined either by counting pyknotic nuclei, annexin-V binding by flow cytometry, or TUNEL BrdU staining by flow cytometry as indicated. Apoptosis was induced either by staurosporine (1 μm), treatment with anti-mouse Fas (5 μq/ml Santa Cruz Biotechnology (SCB), anti-human Fas ([…]) as indicated in appropriate experiment, IL-3 withdrawal-(24 hrs) or as indicated. For pyknolic nuclei count, NIH3T3 cells were grown on glass coverslips and assayed for apoptosis. Suspension cells were analyzed by nuclear staining with 25 μM acridine orange/25 μm ethidium bromide or 5 μg/ml Hoechst 33342 (Molecular Probes, Eugene, Oreg.). Apoptosis was identified by the presence of characteristic pyknotic nuclei as described (Jacobson and Raff, 1995). At least 5 individual fields were photographed and counted using a Zeiss axioscope fluorescence microscope. […] The cells were trypsinized and viable cells counted following trypan blue staining. Untreated cells were counted at the time of treatment. % survival represents (number of viable cells post-treatment)/(number of viable cells pretreatment). […] Flow cytometry analysis was performed on a BD FACSCalibur machine with CELLQuest and analyzed using FlowJo software (Tree Star).

[2] = test system: CD19+ human B cells
Procedure: Apoptosis was measured by annexin-V binding detected by flow cytometry, and gated for CD19+, cells. […] Apoptosis was measured by annexin-V binding assay.
Antibody cross-linking experiments were performed using mAbs to anti-ICAM-1, anti-ICAM-2, anti-ICAM-3, anti-CD43, or anti-CD44 that recognizes the N-terminal region (extracellular domain) at 10 μg/ml. Spin dialysis (Biorad) was used for buffer exchange of azide containing antibodies (0.01%) to phosphate buffered saline buffer pH 7.4. Anti-mouse IgG (Sigma) was used as a control antibody in cross-linking experiments. 1×10^6 Jurkat, 1×10^6 BaF3, or 1×10^7 PBMC cells were serum starved for 4 hours respectively (except PBMC). Cells were incubated with either mAb (10 μg/ml) or mouse IgG (10 μg/ml) at 37° C. for the indicated time. Time points began post serum starvation to attenuate most of the signaling pathways or as indicated. […] Cells extracts were taken and subjected to either immunoprecipitation or immunoblotting were appropriate. Primary cells were subjected to apoptotic treatment followed by preparation for flow cytometry. GTPγS was made cell permeant by pre-incubating compound with Fugene (Roche Biochemicals) in a 1:4 molar ratio for 30 minutes at 25° C. prior to being applied to cells.

[3] = target: T1, cell surface LFA-1 (Homo sapiens, UniProt P20701); test: ICAM-2-FITC surface binding on Jurkat cells by flow cytometry (single cell binding measurements); details: cytochalisin D treated Jurkat cells
T1 construct: within the physiological context of cell surface LFA-1; endogenous in cells; host or cells: Jurkat T cells
Procedure: A) Purified human ICAM-2, from retrovirally transduced NIH3T3, (see materials and methods) was tested for purity, size, and aggregate formation by native gel electrophoresis and gel filtration. Analysis of purified ICAM-2, from two different preps and ICAM2-FC from NSO cells. Molecular weight was calculated using relative distance migration from a molecular weight standard. Concentration was determined using serial dilutions of BSA as a standard. […] B) ICAM-2, ligand binding to cell surface as a function of time. 5×10^6, unstimulated and PMA stimulated (1, μg/ml, 30, min) Jurkat T cells were incubated with ICAM-2-FITC or LFA-1-FITC antibody (1, μg/ml) and subjected to time dependent flow cytometry. Mean fluorescence intensity was plotted per time of a gated homogenous cell population. Flow rate was maintained at 200-300, cells/second, with fluorescence intensity values acquired at 10, millisecond intervals for 1200, seconds. C) Flow cytometric analysis of ICAM-2-FITC and a-LFA-1-FITC surface binding on cytochalisin D treated (10, μM, 30, min) Jurkat cells at 37° C. and 4° C. D) Curve fit analysis of ICAM-2-FITC binding per 10^4, cells. Jurkat cells were incubated with ICAM-2-FITC at 37° C. for 30, min at indicated concentrations in 50, μL volume. Cells were washed 1×, and analyzed for mean fluorescent intensity (MFI) of 10^4, cells. Percent ICAM-2-FITC bound was calculated from the following equation: 100×[(MFI[×]−MFIunstained)/(MFI[saturated]−MFIunstained)] where [×]=ICAM-2-FITC concentration and [saturated]=concentration that saturated binding. Values were fit to the equation Y=m1*M0/(m2+M0) (see materials and methods).
Full length ICAM2 cDNA was obtained from Jurkat cells and cloned into retroviral vector PBM-Z-IN at the BamHI/Sal1 site as described (Perez et al., 2002). Human ICAM-2 was overexpressed in NIH3T3 cells by retroviral infection and harvested by immunoaffinity chromatography. ICAM-2 was affinity purified using a two step lysing procedure and subsequent purification on an anti-ICAM-2 solid support. […] Batch lysate of harvested supernatant was performed (4° C., for 2 hrs), and washed 4 times in buffer C (0.1% Tween-20, PBS pH 7.4). ICAM-2 protein was eluted by 4.5 M NaCl (in Tris pH 6.8), dialyzed overnight (in PBS pH 7.4, 0.001% azide, 0.01% glycerol, 4° C.), concentrated using size exclusion spin chromatography and stabilized using 0.01% glycerol. Anti-ICAM-2 solid support was re-equilibrated in buffer C, stored in 0.001% thimerosol and re-used up to 3 times. Purity was >98% as assessed by coomasie gel. […] Gel imaging was performed on a VersaDoc machine (Biorad) and analyzed using Quantity One quantitation software (Biorad). […]

[4] = test system: LFA-1; test: LFA-1 activation by mAb24-Alexa633 staining, flow cytometry; type: cell-based, human; details: Jurkat cells; agents 10 μM 30 min, PMA 1 μg/ml, prior to ICAM-2 10 μg/ml 30 min
Procedure: A) Confocal microscopy of actin and microtubule architecture upon ICAM-2, stimulus (10, μg/ml, 30, min) in Jurkat cells. Actin was stained by phalloidin-alexa633, and tubulin by taxol-alexa546. Inserts display enlarged cell image of representative treatment B) Flow cytometric staining for actin and microtubules as described above. C) Left: Fluorescence topography analysis of ICAM-2-FITC (1 μg/ml, time as indicated) surface distribution. Intensity color gradient depicts high and low fluorescent intensity values. Right: Confocal microscopy of ICAM-2-FITC surface binding (10 μg/ml, 30, min) and anti-β2-alexa568, (clone CTB104). D) Staining for ICAM-2-FITC surface binding (fluorescence intensity) and surface distribution (fluorescence pulse) in cytochalisin D treated Jurkat cells at 37° C. and 4° C. by flow cytometry. E) Values for ICAM-2-FITC fluorescence intensity per time-of-flight per cell as described in text. F) Flow cytometric staining for LFA-1 activation by mAb24-alexa633. Stimuli as indicated (10, μM, 30, min), PMA (1, μg/ml) prior to ICAM-2, stimulation (10, μg/ml, 30, min). Staining was performed at 37° C. G) Mean fluorescence intensity (MFI) values of mAb24-633, and ICAM-2, cluster values, computed as described above, as a function of time.
(§1) Intracellular and extracellular staining was performed as described (Perez and Nolan, 2002). Intracellular probes for active kinases were made by conjugating phospho-specific antibodies to the ALEXA FLUOR® dye series as described and used in phospho-protein optimized conditions (Perez and Nolan, 2002). Kinetic analyses was performed by direct application of fixation buffer in time synchronized 96-wells maintained at 37° C. Intracellular actin and microtubule staining was performed using phalloidin-Alexa633 and taxol-Alexa546 dyes (Molecular Probes). Adhesion and clustering assays were performed using ICAM-2-FITC as described in text. LFA-1 activation was assessed by either mAb24-Alexa633 or mAb24-Alexa546 conjugate, surface stained at 37° C. Flow cytometry data are representative of 3 independent experiments of 10^6 cells/sample. 10-50,000 events were collected and manually calibrated on a FACSCalibur™ machine. Data plotted in bar graph format is expressed as geometric mean fluorescence intensity (MFI) and normalized for isotype controls. Log ratios are defined as the MFI of stimulus to the MFI of unstimulated cells. Data was analyzed using Flowjo™ software (Treestar).

[5] = test system: p44/42 MAPK; test: intracellular phospho-p44/42 MAPK by flow cytometry in ICAM-2 treated Jurkat cells; type: cell-based, human; details: chemical agents 10 μM, EDTA 1 mM; mAbs titrated prior to ICAM-2
From the text: A) Mean fluorescent intensity values (MFI) of ICAM-2-FITC (adhesion) and mAb24-Alexa633, (LFA-1, activation) in treated Jurkat cells (as above). Control unstimulated and/or compound pretreated values were subtracted. B) Top panel: Intracellular phospho-p44/42, MAPK detection as a function of ICAM-2, dose in Jurkat cells by flow cytometry (see Material and Methods). Mean fluorescent intensity values (MFI) were plotted±standard deviation (SD). Bottom panel: ICAM-2, treated Jurkat cells were stained for intracellular phospho-p44/42, MAPK as described above. mAbs to β2, and αL, integrins (10, μg/ml, 10, minutes) were titrated prior to ICAM-2, treatment as indicated and plotted for MFI±SD. C) ICAM-2, induced p44/42, MAPK activity is blocked by β2, and αL, integrin antibodies as determined by a p44/42 MAPK kinase assay. Conditions for induction and inhibition are as described above. Recombinant active p44/42, MAPK served as an internal positive control (denoted by “+”). D) Inhibition and activation profile for intracellular phospho-p44/42, by flow cytometry in the presences of chemical agents (10, μM), EDTA (1, mM), or PMA, ionomycin and ICAM-2, stimulus (as indicated above). MFI values±SD are plotted.
as §1

[6] = test system: ezrin; test: phosphotyrosine-protein based elisa for ezrin tyrosine phosphorylation upon ICAM-2 ligation; type: cell-based, human; details: Jurkat cells
Procedure: A) Expression levels of ICAM-2, vary across cell lines of different origins. Quantitative flow cytometry analysis was performed to assess the number of ICAM-2 surface molecules across transformed and untransformed fibroblasts, lymphocytes of T-cell and different B-cell differentiation states and myeloid lineages (see Material and Methods for elaboration). The number of surface molecules/cell is expressed as the mean (bar)+/−SD of triplicate experiments. B) Crosslinking of endogenous ICAM-2, induces ezrin tyrosine phosphorylation and enhanced ICAM-2, interaction. Jurkat cells were crosslinked for ICAM-2 using monoclonal antibody for the indicated times and subjected to immunoprecipitation/immunoblotting as indicated. C) Inhibition of ezrin phosphotyrosine by chemical inhibitors of src and Rho-dependent kinases. D) Ezrin phosphorylation and enhanced interaction with the p85, subunit of PI3K as a function of ICAM-2. Determined as described above. E) PDK-1, activity as a function of ICAM-2, ligation, as described above). F) PI3K and AKT localize to the membrane as a function of ICAM-2, ligation. Membrane/cytosolic fractionation was performed on ICAM-2, ligated Jurkat cells as a function of time and subjected to immunoblotting for PI3K and AKT.
In order to identify upstream kineses capable of tyrosine phosphorylating ezrin as a function of ICAM-2 ligation, we developed a phosphotyrosine-protein based elisa to screen for the inhibition of ezrin tyrosine phosphorylation in vivo by various known inhibitors of protein kineses (Perez and Nolan, manuscript in preparation). […] Given the design of the screen to detect tyrosine residue phosphorylation, we speculate that activation of Rho-dependent processes may be a prerequisite for ezrin to be tyrosine phosphorylated by src (elaborated below).

T1 sequence (P20701 26-1170): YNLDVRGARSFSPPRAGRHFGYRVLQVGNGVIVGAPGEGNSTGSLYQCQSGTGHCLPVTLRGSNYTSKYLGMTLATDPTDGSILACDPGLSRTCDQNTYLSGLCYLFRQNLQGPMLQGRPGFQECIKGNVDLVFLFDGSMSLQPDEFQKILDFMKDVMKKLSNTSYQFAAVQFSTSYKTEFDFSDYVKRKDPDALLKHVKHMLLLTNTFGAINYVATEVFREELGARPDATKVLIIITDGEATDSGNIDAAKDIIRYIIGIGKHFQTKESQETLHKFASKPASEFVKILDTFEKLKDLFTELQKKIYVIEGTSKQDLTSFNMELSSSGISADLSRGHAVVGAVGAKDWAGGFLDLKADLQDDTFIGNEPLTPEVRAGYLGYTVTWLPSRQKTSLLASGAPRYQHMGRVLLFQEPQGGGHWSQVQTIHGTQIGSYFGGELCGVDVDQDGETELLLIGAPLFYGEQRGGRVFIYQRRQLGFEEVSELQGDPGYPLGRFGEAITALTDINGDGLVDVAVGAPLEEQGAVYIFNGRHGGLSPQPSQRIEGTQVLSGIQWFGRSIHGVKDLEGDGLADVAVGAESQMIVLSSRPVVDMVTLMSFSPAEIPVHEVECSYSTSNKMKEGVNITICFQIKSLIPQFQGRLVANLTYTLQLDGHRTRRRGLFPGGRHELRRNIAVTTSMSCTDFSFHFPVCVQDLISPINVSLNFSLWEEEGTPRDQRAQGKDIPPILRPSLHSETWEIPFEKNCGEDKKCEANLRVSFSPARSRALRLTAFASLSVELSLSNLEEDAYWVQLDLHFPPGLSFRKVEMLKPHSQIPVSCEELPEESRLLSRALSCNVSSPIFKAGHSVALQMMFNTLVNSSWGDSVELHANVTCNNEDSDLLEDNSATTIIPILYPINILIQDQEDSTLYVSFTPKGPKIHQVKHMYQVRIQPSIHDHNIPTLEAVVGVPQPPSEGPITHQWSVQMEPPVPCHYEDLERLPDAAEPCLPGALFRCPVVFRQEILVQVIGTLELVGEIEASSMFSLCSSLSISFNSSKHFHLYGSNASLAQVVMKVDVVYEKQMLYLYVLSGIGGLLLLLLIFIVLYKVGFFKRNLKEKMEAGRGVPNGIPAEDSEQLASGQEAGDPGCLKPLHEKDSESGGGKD
T1 sequence (P05107 23-769 partner): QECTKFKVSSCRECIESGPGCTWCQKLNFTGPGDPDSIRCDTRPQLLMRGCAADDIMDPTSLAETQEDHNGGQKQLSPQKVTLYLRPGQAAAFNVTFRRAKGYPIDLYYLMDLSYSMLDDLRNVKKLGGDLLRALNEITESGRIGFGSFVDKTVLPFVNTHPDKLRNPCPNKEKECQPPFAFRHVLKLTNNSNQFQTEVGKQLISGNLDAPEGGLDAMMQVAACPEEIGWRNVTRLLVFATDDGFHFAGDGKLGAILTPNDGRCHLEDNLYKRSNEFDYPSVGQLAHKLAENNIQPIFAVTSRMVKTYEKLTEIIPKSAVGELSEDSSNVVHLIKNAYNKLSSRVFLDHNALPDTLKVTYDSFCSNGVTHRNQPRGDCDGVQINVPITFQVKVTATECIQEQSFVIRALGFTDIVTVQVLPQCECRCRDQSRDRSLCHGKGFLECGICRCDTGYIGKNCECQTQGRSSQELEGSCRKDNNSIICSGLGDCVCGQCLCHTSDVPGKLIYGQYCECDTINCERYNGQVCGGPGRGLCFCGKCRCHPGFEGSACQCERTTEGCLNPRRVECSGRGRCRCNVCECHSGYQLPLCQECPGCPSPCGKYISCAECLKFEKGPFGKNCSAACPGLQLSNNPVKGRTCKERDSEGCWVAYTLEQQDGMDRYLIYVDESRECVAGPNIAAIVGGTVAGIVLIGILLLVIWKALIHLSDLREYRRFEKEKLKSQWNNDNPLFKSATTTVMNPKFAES

Row | Compound | ICAM-2 crosslinking protection against Fas induced apoptosis [1] | apoptosis in primary cells on incubation with compound [2] | LFA-1 receptor clustering and ICAM-2 binding [3] | LFA-1 activation (mAb24 binding) [4] | effect on ICAM-2 induced p44/42 MAPK phosphorylation [5] | tyrosine phosphorylation of ezrin [6]
1 | Nc1nc2c(ncn2[C@@H]2O[C@H](COP(=O)(O)OP(=O)(O)OP(O)(O)=S)[C@@H](O)[C@H]2O)c(=O)[nH]1 [GTPγS] | abrogated | induced apoptosis | – | – | – | –
2 | cytochalisin D | – | – | enhanced LFA-1 receptor clustering and subsequent ICAM-2 binding | attenuated | diminished | –
3 | CO[C@H]1[C@@H](OC)C[C@H](C)[C@@H](OC)C2=CC(=O)C=C(NC(=O)/C(C)=C/C=C\[C@H](OC)[C@@H](OC(N)=O)/C(C)=C/[C@@H]1C)C2=O [herbimycin A] | abrogated | induced apoptosis | – | – | no effect | inhibit tyrosine phosphorylation of ezrin

From patent publication US8962263B2, “Methods and compositions for detecting the activation state of multiple proteins in single cells” (The Board of Trustees of the Leland Stanford Junior …, priority 2001, dated 2015)
